Source: paper PMC5218480 (PLoS ONE, 2017)

Tested on: MV-4-11 cells
Test: Gene expression microarray analysis (Affymetrix PrimeView) and GSEA
Assay type: cell-based, human
Set-up: RFU PODN (11730768_x_at) / Fold change /veh PODN (11730768_x_at) / RFU LINC00158 (11744669_a_at) / Fold change /veh LINC00158 (11744669_a_at) / RFU DUSP10 (11751237_a_at) / Fold change /veh DUSP10 (11751237_a_at) / RFU ID3 (11757404_x_at) / Fold change /veh ID3 (11757404_x_at) / RFU PLEKHG5 (11737974_s_at) / Fold change /veh PLEKHG5 (11737974_s_at) / RFU LRRC4B (11730491_at) / Fold change /veh LRRC4B (11730491_at) / RFU GIMAP4 (11747438_a_at) / Fold change /veh GIMAP4 (11747438_a_at) / RFU KRT8 (11758183_x_at) / Fold change /veh KRT8 (11758183_x_at) / RFU CNN1 (11734310_a_at) / Fold change /veh CNN1 (11734310_a_at) / RFU VPS37D (11726825_at) / Fold change /veh VPS37D (11726825_at) / RFU C10orf10 (11716522_x_at) / Fold change /veh C10orf10 (11716522_x_at) / RFU KIR2DL2 /// KIR2DL4 /// KIR2DL5A /// KIR2DL5B /// KIR2DS1 /// KIR2DS2 /// KIR2DS3 /// KIR2DS4 /// KIR3DL3 /// KIR3DL3 /// KIR3DS1 (11738374_at) / Fold change /veh KIR2DL2 /// KIR2DL4 /// KIR2DL5A /// KIR2DL5B /// KIR2DS1 /// KIR2DS2 /// KIR2DS3 /// KIR2DS4 /// KIR3DL3 /// KIR3DL3 /// KIR3DS1 (11738374_at) / RFU C1QL1 (11718748_at) / Fold change /veh C1QL1 (11718748_at) / RFU TMPRSS4 (11747572_a_at) / Fold change /veh TMPRSS4 (11747572_a_at) / RFU HAMP (11756126_x_at) / Fold change /veh HAMP (11756126_x_at) / RFU RNFT2 (11725882_a_at) / Fold change /veh RNFT2 (11725882_a_at) / RFU NR4A2 (11747474_a_at) / Fold change /veh NR4A2 (11747474_a_at) / RFU ABCC12 (11746883_a_at) / Fold change /veh ABCC12 (11746883_a_at) / RFU TMEM136 (11760407_x_at) / Fold change /veh TMEM136 (11760407_x_at) / RFU CLDN22 /// WWC2 (11732394_at) / Fold change /veh CLDN22 /// WWC2 (11732394_at) / RFU HLA-DPB1 (11760878_x_at) / Fold change /veh HLA-DPB1 (11760878_x_at) / RFU SPINT1 (11716480_a_at) / Fold change /veh SPINT1 (11716480_a_at) / RFU GAP43 (11754022_s_at) / Fold change /veh GAP43 (11754022_s_at) / RFU A4GNT (11735810_at) / Fold change /veh A4GNT (11735810_at) / RFU PRB3 (11715151_x_at) / Fold change /veh PRB3 (11715151_x_at) / RFU TUBB4B (11761932_at) / Fold change /veh TUBB4B (11761932_at) / RFU CAPN14 (11732068_a_at) / Fold change /veh CAPN14 (11732068_a_at) / RFU TMCC2 (11721928_a_at) / Fold change /veh TMCC2 (11721928_a_at) / RFU IRGQ (11745062_a_at) / Fold change /veh IRGQ (11745062_a_at) / RFU FAM174B (11720279_a_at) / Fold change /veh FAM174B (11720279_a_at) / RFU TMPRSS4 (11748680_a_at) / Fold change /veh TMPRSS4 (11748680_a_at) / RFU FAM212B (11763350_a_at) / Fold change /veh FAM212B (11763350_a_at) / RFU PLEKHG5 (11743358_a_at) / Fold change /veh PLEKHG5 (11743358_a_at) / RFU ZSCAN30 (11745921_a_at) / Fold change /veh ZSCAN30 (11745921_a_at) / RFU CMKLR1 (11741424_a_at) / Fold change /veh CMKLR1 (11741424_a_at) / RFU LOC101060620 /// MAPK8IP1 (11723275_at) / Fold change /veh LOC101060620 /// MAPK8IP1 (11723275_at) / RFU SPTSSB (11747773_x_at) / Fold change /veh SPTSSB (11747773_x_at) / RFU PRSS12 (11739890_at) / Fold change /veh PRSS12 (11739890_at) / RFU BIN1 (11741810_x_at) / Fold change /veh BIN1 (11741810_x_at) / RFU WNT11 (11732464_a_at) / Fold change /veh WNT11 (11732464_a_at) / RFU C10orf10 (11716521_a_at) / Fold change /veh C10orf10 (11716521_a_at) / RFU C5orf56 (11738089_at) / Fold change /veh C5orf56 (11738089_at) / RFU CYB561 (11721691_x_at) / Fold change /veh CYB561 (11721691_x_at) / RFU ANKRD19P (11752326_a_at) / Fold change /veh ANKRD19P (11752326_a_at) / RFU OR2T12 /// OR2T33 /// OR2T8 (11738714_s_at) / Fold change /veh OR2T12 /// OR2T33 /// OR2T8 (11738714_s_at) / RFU VCAN (11748164_a_at) / Fold change /veh VCAN (11748164_a_at) / RFU JSRP1 (11732532_at) / Fold change /veh JSRP1 (11732532_at) / RFU KRTAP10-11 (11738290_x_at) / Fold change /veh KRTAP10-11 (11738290_x_at) / RFU MYO3A (11730013_a_at) / Fold change /veh MYO3A (11730013_a_at) / RFU EBF3 (11725865_a_at) / Fold change /veh EBF3 (11725865_a_at) / RFU CAMK2N1 (11719241_x_at) / Fold change /veh CAMK2N1 (11719241_x_at) / RFU C5orf56 (11738088_a_at) / Fold change /veh C5orf56 (11738088_a_at) / RFU OLFML3 (11715873_a_at) / Fold change /veh OLFML3 (11715873_a_at) / RFU LOC100653217 /// NTM (11731650_a_at) / Fold change /veh LOC100653217 /// NTM (11731650_a_at) / RFU MAPK11 (11762145_a_at) / Fold change /veh MAPK11 (11762145_a_at) / RFU FIZ1 (11724087_x_at) / Fold change /veh FIZ1 (11724087_x_at) / RFU OASL (11726364_x_at) / Fold change /veh OASL (11726364_x_at) / RFU SOX15 (11748057_x_at) / Fold change /veh SOX15 (11748057_x_at) / RFU CD79A (11719716_a_at) / Fold change /veh CD79A (11719716_a_at) / RFU HIST1H1D (11736915_at) / Fold change /veh HIST1H1D (11736915_at) / RFU CASKIN2 (11723855_a_at) / Fold change /veh CASKIN2 (11723855_a_at) / RFU LOC730098 (11760151_x_at) / Fold change /veh LOC730098 (11760151_x_at) / RFU OR4N2 (11742367_at) / Fold change /veh OR4N2 (11742367_at) / RFU PRRT2 (11749266_a_at) / Fold change /veh PRRT2 (11749266_a_at) / RFU SNX32 (11753110_a_at) / Fold change /veh SNX32 (11753110_a_at) / RFU CDHR5 (11726645_a_at) / Fold change /veh CDHR5 (11726645_a_at) / RFU RCAN1 (11760418_a_at) / Fold change /veh RCAN1 (11760418_a_at) / RFU FAM167A (11723789_a_at) / Fold change /veh FAM167A (11723789_a_at) / RFU FAM26E (11764081_at) / Fold change /veh FAM26E (11764081_at) / RFU ISYNA1 (11749810_s_at) / Fold change /veh ISYNA1 (11749810_s_at) / RFU ACY1 (11761880_at) / Fold change /veh ACY1 (11761880_at) / RFU 11764098_at / Fold change /veh 11764098_at / RFU SAMD14 (11745864_x_at) / Fold change /veh SAMD14 (11745864_x_at) / RFU NPB (11741838_a_at) / Fold change /veh NPB (11741838_a_at) / RFU TMPRSS6 (11731388_a_at) / Fold change /veh TMPRSS6 (11731388_a_at) / RFU KRTAP10-2 (11738614_at) / Fold change /veh KRTAP10-2 (11738614_at) / RFU ARHGAP8 /// PRR5-ARHGAP8 (11727945_x_at) / Fold change /veh ARHGAP8 /// PRR5-ARHGAP8 (11727945_x_at) / RFU KRTAP5-7 /// NADSYN1 (11734609_at) / Fold change /veh KRTAP5-7 /// NADSYN1 (11734609_at) / RFU RASL12 (11751679_a_at) / Fold change /veh RASL12 (11751679_a_at) / RFU CDKN2B (11736163_a_at) / Fold change /veh CDKN2B (11736163_a_at) / RFU PRF1 (11729649_at) / Fold change /veh PRF1 (11729649_at) / RFU, ZNF638 /// ZNF638-IT1 / Fold change vs veh, ZNF638 /// ZNF638-IT1 / RFU, PANK3 / Fold change vs veh, PANK3 / RFU, SH3YL1 / Fold change vs veh, SH3YL1 / RFU, ZEB2 / Fold change vs veh, ZEB2 / RFU, NRIP1 / Fold change vs veh, NRIP1 / RFU, PTTG1IP / Fold change vs veh, PTTG1IP / RFU, CAPN2 / Fold change vs veh, CAPN2 / RFU, MED14 / Fold change vs veh, MED14 / RFU, SNORA58 / Fold change vs veh, SNORA58 / RFU, C1orf63 / Fold change vs veh, C1orf63 / RFU, LRRFIP1 / Fold change vs veh, LRRFIP1 / RFU, NDUFAF7 / Fold change vs veh, NDUFAF7 / RFU, SLC12A2 / Fold change vs veh, SLC12A2 / RFU, IBTK / Fold change vs veh, IBTK / RFU, ESF1 / Fold change vs veh, ESF1 / Fold change vs veh, TMEM50B / RFU, TAOK1 / Fold change vs veh, TAOK1 / RFU, ACBD3 / Fold change vs veh, ACBD3 / RFU, TMA16 / Fold change vs veh, TMA16 / RFU, RWDD3 / Fold change vs veh, RWDD3 / RFU, BCAT1 / Fold change vs veh, BCAT1 / RFU, EDEM3 / Fold change vs veh, EDEM3 / RFU, TMEM33 / Fold change vs veh, TMEM33 / RFU, WDR75 / Fold change vs veh, WDR75 / RFU, AHCTF1 / Fold change vs veh, AHCTF1 / RFU, TFRC / Fold change vs veh, TFRC / RFU, ZDHHC17 / Fold change vs veh, ZDHHC17 / RFU, NOM1 / Fold change vs veh, NOM1 / RFU, ARL8B / Fold change vs veh, ARL8B / RFU, ZBTB11 / Fold change vs veh, ZBTB11 / RFU, TAMM41 / Fold change vs veh, TAMM41 / RFU, KIAA1704 /// LOC100996395 / Fold change vs veh, KIAA1704 /// LOC100996395 / RFU, ING1 / Fold change vs veh, ING1 / RFU, TRMT61B / Fold change vs veh, TRMT61B / RFU, FUBP3 / Fold change vs veh, FUBP3 / RFU, TP53 / Fold change vs veh, TP53 / RFU, TNKS2 / Fold change vs veh, TNKS2 / RFU, ZFP14 / Fold change vs veh, ZFP14 / RFU, ACTR2 / Fold change vs veh, ACTR2 / RFU, PPP3R1 / Fold change vs veh, PPP3R1 / RFU, PIK3R1 / Fold change vs veh, PIK3R1 / RFU, HNRNPA1 / Fold change vs veh, HNRNPA1 / RFU, RNF170 / Fold change vs veh, RNF170 / RFU, ZNF28 / Fold change vs veh, ZNF28 / RFU, RNGTT / Fold change vs veh, RNGTT / RFU, OGT / Fold change vs veh, OGT / RFU, BRD1 / Fold change vs veh, BRD1 / RFU, MARS / Fold change vs veh, MARS / RFU, ZNF655 / Fold change vs veh, ZNF655 / RFU, FAHD1 / Fold change vs veh, FAHD1 / RFU, BDP1 / Fold change vs veh, BDP1 / RFU, LRRCC1 / Fold change vs veh, LRRCC1 / RFU, ARID1A / Fold change vs veh, ARID1A / RFU, ZNF146 / Fold change vs veh, ZNF146 / RFU, ZNF330 / Fold change vs veh, ZNF330 / RFU, GPN3 / Fold change vs veh, GPN3 / RFU, C9orf123 / Fold change vs veh, C9orf123 / RFU, N4BP2L2 / Fold change vs veh, N4BP2L2 / RFU, ARFIP1 / Fold change vs veh, ARFIP1 / RFU, FAM179B / Fold change vs veh, FAM179B / RFU, BCL10 / Fold change vs veh, BCL10 / RFU, UHRF1BP1L / Fold change vs veh, UHRF1BP1L / RFU, BET1 / Fold change vs veh, BET1 / RFU, CNOT2 / Fold change vs veh, CNOT2 / RFU, ZNF268 / Fold change vs veh, ZNF268 / Fold change vs veh, ZNF507 / RFU, DGCR2 / Fold change vs veh, DGCR2 / RFU, WDSUB1 / Fold change vs veh, WDSUB1 / Fold change vs veh, HSP90B1 /// MIR3652 / RFU, ADSS / Fold change vs veh, ADSS / RFU, GK / Fold change vs veh, GK / RFU, ZNF148 / Fold change vs veh, ZNF148 / RFU, TAF9 / Fold change vs veh, TAF9 / RFU, SLC1A5 / Fold change vs veh, SLC1A5 / RFU, SLMO2 / Fold change vs veh, SLMO2 / RFU, ABCC4 / Fold change vs veh, ABCC4 / RFU, LOC101060439 /// RAP1B / Fold change vs veh, LOC101060439 /// RAP1B / RFU, RFX7 / Fold change vs veh, RFX7 / RFU, GTPBP10 / Fold change vs veh, GTPBP10 / RFU, CNEP1R1 / Fold change vs veh, CNEP1R1 / RFU, BIVM-ERCC5 /// ERCC5 / Fold change vs veh, BIVM-ERCC5 /// ERCC5 / RFU, ILF3 / Fold change vs veh, ILF3 / RFU 11762660_at / Fold change /veh 11762660_at / RFU VCAN (11757783_s_at) / Fold change /veh VCAN (11757783_s_at) / RFU DDX43 (11728927_at) / Fold change /veh DDX43 (11728927_at) / RFU KRT8 (11758188_x_at) / Fold change /veh KRT8 (11758188_x_at) / RFU NKD1 (11759106_at) / Fold change /veh NKD1 (11759106_at) / RFU SRD5A1 (11742802_a_at) / Fold change /veh SRD5A1 (11742802_a_at) / RFU TPSAB1 /// TPSB2 (11721975_s_at) / Fold change /veh TPSAB1 /// TPSB2 (11721975_s_at) / RFU GSTM3 (11746129_a_at) / Fold change /veh GSTM3 (11746129_a_at) / RFU IL23R (11737362_x_at) / Fold change /veh IL23R (11737362_x_at) / RFU TMEM51 (11727254_a_at) / Fold change /veh TMEM51 (11727254_a_at) / RFU PIWIL2 (11732686_x_at) / Fold change /veh PIWIL2 (11732686_x_at) / RFU ORM1 (11744905_x_at) / Fold change /veh ORM1 (11744905_x_at) / RFU CCDC152 (11743942_at) / Fold change /veh CCDC152 (11743942_at) / RFU ECM1 (11717891_a_at) / Fold change /veh ECM1 (11717891_a_at) / RFU IL23R (11748794_a_at) / Fold change /veh IL23R (11748794_a_at) / RFU TNFAIP8L3 (11732012_x_at) / Fold change /veh TNFAIP8L3 (11732012_x_at) / RFU MBOAT4 (11741988_at) / Fold change /veh MBOAT4 (11741988_at) / RFU 11764193_at / Fold change /veh 11764193_at / RFU TMEM53 (11763286_at) / Fold change /veh TMEM53 (11763286_at) / RFU MAGEB2 (11727129_at) / Fold change /veh MAGEB2 (11727129_at) / RFU TMEM200A (11744735_a_at) / Fold change /veh TMEM200A (11744735_a_at) / RFU CCDC152 (11751479_a_at) / Fold change /veh CCDC152 (11751479_a_at) / RFU FAM211A (11726209_a_at) / Fold change /veh FAM211A (11726209_a_at) / RFU RGS16 (11746705_a_at) / Fold change /veh RGS16 (11746705_a_at) / RFU VCAN (11755009_s_at) / Fold change /veh VCAN (11755009_s_at) / RFU RHOB (11743442_s_at) / Fold change /veh RHOB (11743442_s_at) / RFU RGS16 (11720943_a_at) / Fold change /veh RGS16 (11720943_a_at) / RFU RGS16 (11720944_at) / Fold change /veh RGS16 (11720944_at) / RFU, VPS4B / Fold change vs veh, VPS4B / RFU, CREB1 / Fold change vs veh, CREB1 / RFU, DNAJC13 / Fold change vs veh, DNAJC13 / RFU, GNAQ / Fold change vs veh, GNAQ / RFU, CDK5R1 / Fold change vs veh, CDK5R1 / RFU, ZRANB3 / Fold change vs veh, ZRANB3 / RFU, CUL4A / Fold change vs veh, CUL4A / RFU, CCNY / Fold change vs veh, CCNY / RFU, UFL1 / Fold change vs veh, UFL1 / RFU, COG3 / Fold change vs veh, COG3 / RFU, DIAPH2 / Fold change vs veh, DIAPH2 / RFU, SKA2 / Fold change vs veh, SKA2 / RFU, AFF3 / Fold change vs veh, AFF3 / RFU, LMF1 / Fold change vs veh, LMF1 / RFU, IPO11 / Fold change vs veh, IPO11 / RFU, DFFB / Fold change vs veh, DFFB / RFU, FOXP1 / Fold change vs veh, FOXP1 / RFU, CARD8 / Fold change vs veh, CARD8 / RFU, STRN3 / Fold change vs veh, STRN3 / RFU, ADK / Fold change vs veh, ADK / RFU, RASSF2 / Fold change vs veh, RASSF2 / RFU, WIPF1 / Fold change vs veh, WIPF1 / RFU, LARP1B / Fold change vs veh, LARP1B / RFU, RASA1 / Fold change vs veh, RASA1 / RFU, RB1 / Fold change vs veh, RB1 / RFU, PPFIA1 / Fold change vs veh, PPFIA1 / RFU, MAT2A / Fold change vs veh, MAT2A / RFU, CCT5 / Fold change vs veh, CCT5 / RFU, WDR92 / Fold change vs veh, WDR92 / RFU, CUX1 / Fold change vs veh, CUX1 / RFU, TTC7A / Fold change vs veh, TTC7A / RFU, TMEM135 / Fold change vs veh, TMEM135 / RFU, DEPTOR / Fold change vs veh, DEPTOR / RFU, CPM / Fold change vs veh, CPM / RFU, DNAJB6 / Fold change vs veh, DNAJB6 / RFU, CACNA2D3 / Fold change vs veh, CACNA2D3 / RFU, DTX4 / Fold change vs veh, DTX4 / RFU, TFCP2 / Fold change vs veh, TFCP2 / RFU, GMCL1 /// GMCL1P1 / Fold change vs veh, GMCL1 /// GMCL1P1 / RFU, AEBP2 / Fold change vs veh, AEBP2 / RFU, SNHG1 /// SNORD22 /// SNORD25 /// SNORD26 /// SNORD27 /// SNORD28 /// SNORD29 /// SNORD31 / Fold change vs veh, SNHG1 /// SNORD22 /// SNORD25 /// SNORD26 /// SNORD27 /// SNORD28 /// SNORD29 /// SNORD31 / Fold change (Aza/veh), C12orf56 (ProbeSet 11735607_a_at) / Fold change (ACY-1035/veh), C12orf56 (ProbeSet 11735607_a_at) / Fold change (Aza/veh), FGFR1OP (ProbeSet 11751329_s_at) / Fold change (ACY-1035/veh), FGFR1OP (ProbeSet 11751329_s_at) / Fold change (Aza/veh), VPS36 (ProbeSet 11739960_a_at) / Fold change (ACY-1035/veh), VPS36 (ProbeSet 11739960_a_at) / RFU SYPL1 (11715823_x_at) / Fold change /veh SYPL1 (11715823_x_at) / RFU IGFBP7 (11715501_s_at) / Fold change /veh IGFBP7 (11715501_s_at) / RFU REEP3 (11722064_at) / Fold change /veh REEP3 (11722064_at) / RFU IGLL1 (11728026_x_at) / Fold change /veh IGLL1 (11728026_x_at): dose or concentration left out as unconfirmed
Details: ProbeSet 11755070_a_at; LIST D

Nc1ccc(-c2cccs2)cc1NC(=O)c1ccc2c(c1)cc(C1CC1)n2CCN1CCOCC1 [ACY-1035]
Fold change vs veh, CARD8: 0.85
